Test results reported in the supplement of paper PMC10307832.

Legend:
Assay in all cases: relative viability (nuclei count vs DMSO), 5 days (fraction); higher = more cells survive
Crizotinib + Palbociclib = compound: C[C@@H](Oc1cc(-c2cnn(C3CCNCC3)c2)cnc1N)c1c(Cl)ccc(F)c1Cl [Crizotinib] + CC(=O)c1c(C)c2cnc(Nc3ccc(N4CCNCC4)cn3)nc2n(C2CCCC2)c1=O [Palbociclib] (partner 0.5 µM)
Method in brief: (§1)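 Lung cancer cell lines were pin-tool dosed in 1536-well plates on the day after seeding, with either a lone drug or a fixed anchor-drug dose plus five library-drug doses (not always all listed) in √10 steps. Nuclei were counted on 4× images after 5 days. Relative viability is the ratio of treated-well to vehicle-well nuclei counts, with each value a median of duplicate plates.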

Carfilzomib + Luminespib = compound: CC(C)C[C@H](NC(=O)[C@H](CCc1ccccc1)NC(=O)CN1CCOCC1)C(=O)N[C@@H](Cc1ccccc1)C(=O)N[C@@H](CC(C)C)C(=O)[C@@]1(C)CO1 [Carfilzomib] + CCNC(=O)c1noc(-c2cc(C(C)C)c(O)cc2O)c1-c1ccc(CN2CCOCC2)cc1 [Luminespib] (partner 0.01 µM)
Method in brief: as §1

Crizotinib + Decitabine = compound: C[C@@H](Oc1cc(-c2cnn(C3CCNCC3)c2)cnc1N)c1c(Cl)ccc(F)c1Cl [Crizotinib] + Nc1ncn([C@H]2C[C@H](O)[C@@H](CO)O2)c(=O)n1 [Decitabine] (partner 2 µM)
Method in brief: as §1

Carfilzomib + Linsitinib = compound: CC(C)C[C@H](NC(=O)[C@H](CCc1ccccc1)NC(=O)CN1CCOCC1)C(=O)N[C@@H](Cc1ccccc1)C(=O)N[C@@H](CC(C)C)C(=O)[C@@]1(C)CO1 [Carfilzomib] + C[C@]1(O)C[C@@H](c2nc(-c3ccc4ccc(-c5ccccc5)nc4c3)c3c(N)nccn32)C1 [Linsitinib] (partner 1 µM)
Method in brief: as §1

Row | Cell Line | relative viability (Crizotinib + Palbociclib; first compound 0.01 µM) | relative viability (Crizotinib + Palbociclib; first compound 0.03162 µM) | relative viability (Crizotinib + Palbociclib; first compound 0.1 µM) | relative viability (Crizotinib + Palbociclib; first compound 0.3162 µM) | relative viability (Crizotinib + Palbociclib; first compound 1 µM) | relative viability (Carfilzomib + Luminespib; first compound 0.001 µM) | relative viability (Carfilzomib + Luminespib; first compound 0.003162 µM) | relative viability (Carfilzomib + Luminespib; first compound 0.01 µM) | relative viability (Carfilzomib + Luminespib; first compound 0.03162 µM) | relative viability (Carfilzomib + Luminespib; first compound 0.1 µM) | relative viability (Crizotinib + Decitabine; first compound 0.01 µM) | relative viability (Crizotinib + Decitabine; first compound 0.03162 µM) | relative viability (Crizotinib + Decitabine; first compound 0.1 µM) | relative viability (Crizotinib + Decitabine; first compound 0.3162 µM) | relative viability (Crizotinib + Decitabine; first compound 1 µM) | relative viability (Carfilzomib + Linsitinib; first compound 0.001 µM) | relative viability (Carfilzomib + Linsitinib; first compound 0.003162 µM) | relative viability (Carfilzomib + Linsitinib; first compound 0.01 µM) | relative viability (Carfilzomib + Linsitinib; first compound 0.03162 µM) | relative viability (Carfilzomib + Linsitinib; first compound 0.1 µM)
1 | PC-14 | 0.52 | 0.53 | 0.419 | 0.566 | 0.535 | 0.143 | 0.176 | 0.18 | 0.117 | 0.109 | 0.182 | 0.248 | 0.225 | 0.244 | 0.248 | 1.09 | 0.937 | 1.08 | 0.215 | 0.12
2 | RERF-LC-KJ | 0.98 | 1.12 | 0.925 | 0.991 | 1.06 | 1.24 | 1.29 | 1.32 | 0.609 | 0.224 | 0.737 | 0.635 | 0.569 | 0.585 | 0.7 | 0.888 | 0.919 | 1.05 | 0.776 | 0.353
3 | SK-LU-1 | 0.391 | 0.359 | 0.38 | 0.361 | 0.436 | 0.238 | 0.223 | 0.211 | 0.154 | 0.13 | 0.648 | 0.715 | 0.634 | 0.599 | 0.63 | 1.08 | 1.34 | 0.949 | 0.173 | 0.161
4 | SK-MES-1 | 0.295 | 0.318 | 0.341 | 0.312 | 0.302 | 0.854 | 0.902 | 0.759 | 0.544 | 0.172 | 0.318 | 0.378 | 0.367 | 0.388 | 0.335 | 1.17 | 1.16 | 1.17 | 1.03 | 0.334
5 | SW 1573 | 0.373 | 0.368 | 0.39 | 0.417 | 0.411 | 0.317 | 0.23 | 0.368 | 0.0748 | 0.057 | 0.431 | 0.529 | 0.483 | 0.404 | 0.456 | 0.736 | 0.881 | 0.75 | 0.268 | 0.0735
6 | UMC-11 | 0.329 | 0.336 | 0.307 |  | 0.398 | 1.01 | 1.01 | 1.02 | 0.846 | 0.268 | 0.694 | 0.593 | 0.521 |  | 0.643 | 0.981 | 1.03 | 1.01 | 0.949 | 0.224
